Peptide text beside a SMILES is read from it. * marks the point of attachment. Palmitoyl = CCCCCCCCCCCCCCCC(=O)*
Tests used:
Assay type in all cases: cell-based
[1] = tested on: E. coli CAN-ICU 61714 (gentamicin-resistant)
Method: (§1) The synthesized SPRLPs were evaluated for their antibacterial potency against a panel of Gram-positive and Gram-negative bacteria (Tables 2 & 3). Some of the included pathogens were collected from patients visiting or admitted to participating Canadian hospitals through the CAN-ICU (27) and CANWARD (28) national surveillance studies. Antibacterial activity was assessed using minimum inhibitory concentration (MIC) against various clinical pathogens.
(§2) Isolates used in this study were either obtained from the American Type Culture Collection (ATCC), the Canadian National Intensive Care Unit (CAN-ICU) surveillance study (27) or the Canadian Ward Surveillance (CANWARD) study (28). Clinical isolates belonging to the CAN-ICU and CANWARD studies were recovered from patients suffering a presumed infectious disease entering or admitted in a participating medical center across Canada during the time of study. MDR P. aeruginosa strains in this study refer to those that are resistant to aminoglycosides, fluoroquinolones, cephalosporins, and carbapenems while XDR strains are those that are resistant to aminoglycosides, fluoroquinolones, cephalosporins, carbapenems, aztreonam and penicillin+β-lactamase inhibitor combination (39, 40).
(§3) Microbroth dilution susceptibility test following the Clinical and Laboratory Standards Institute (CLSI) guidelines (32) was performed to assess the in vitro antibacterial activity of SPRLPs. Overnight grown bacterial cultures were diluted in saline to achieve a 0.5 McFarland turbidity, followed by 1:50 dilution in Mueller-Hinton broth (MHB) for inoculation to a final concentration of 5×10^5 colony forming units/mL. The assay was done on a 96-well plate to which the agents of interest were 2-fold serially diluted in MHB and incubated with equal volumes of inoculum at 37° C. for 18 hours. MIC was determined as the lowest concentration to inhibit visible bacterial growth in form of turbidity, which was confirmed using EMax Plus microplate reader (Molecular Devices, USA) at a wavelength of 590 nm. The well containing MHB broth with or without bacterial cells was used as positive or negative control, respectively.

[2] = tested on: E. faecalis ATCC 29212
Method: as §1, §2, §3

[3] = tested on: methicillin-susceptible Staphylococcus epidermidis CANWARD-2008 81388; settings: methicillin-susceptible CANWARD-2008 81388
Method: as §1, §2, §3

[4] = tested on: methicillin-resistant S. epidermidis CAN-ICU 61589 (ceftazidime-resistant); settings: methicillin-resistant CAN-ICU 61589 (ceftazidime-resistant)
Method: as §1, §2, §3

[5] = tested on: E. faecium ATCC 27270
Method: as §1, §2, §3

[6] = tested on: P. aeruginosa wild-type PAO1
Method: as §1, §2, §3

[7] = tested on: E. coli ATCC 25922
Method: as §1, §2, §3

[8] = tested on: P. aeruginosa ATCC 27853
Method: as §1, §2, §3

[9] = tested on: S. aureus ATCC 29213
Method: as §1, §2, §3

[10] = tested on: P. aeruginosa CAN-ICU 62308 (gentamicin-resistant)
Method: as §1, §2, §3

[11] = tested on: A. baumannii CAN-ICU 63169
Method: as §1, §2, §3

[12] = tested on: K. pneumoniae ATCC 13883
Method: as §1, §2, §3

[13] = tested on: E. coli CANWARD-2011 97615 (gentamicin-, tobramycin-, ciprofloxacin-resistant) aac(3′)iia
Method: as §1, §2, §3

[14] = tested on: S. maltophilia CAN-ICU 62584
Method: as §1, §2, §3

[15] = tested on: P. aeruginosa CANWARD-2011 96846 (gentamicin-, tobramycin-resistant)
Method: as §1, §2, §3

[16] = tested on: E. coli CAN-ICU 63074 (amikacin-intermediate resistant)
Method: as §1, §2, §3

[17] = tested on: methicillin-resistant S. aureus ATCC 33592
Method: as §1, §2, §3

[18] = tested on: pig erythrocytes
Method: Since PRAMPs are able to kill bacteria through membrane lysis, it is imperative to evaluate whether these synthesized SPRLPs also lyse eukaryotic membranes. The ability to lyse porcine red blood cells was assessed and the minimum concentration to result in 5% erythrocyte hemolysis (MHC) was reported (Tables 2 & 3). […] This greatly limits their therapeutic potential. […] However, all other SPRLPs were non-hemolytic (MHC>512 μg/mL).
The ability of SPRLPs to lyse eukaryotic red blood cells were quantified by the amount of hemoglobin released upon incubation with pig erythrocytes, following published protocols (37, 39). Fresh pig blood drawn from pig antecubital vein was centrifuged at 1000×g for 5 minutes at 4° C., washed with PBS three times and re-suspended in the same buffer, consecutively. Then, agents of interest were 2-fold serially diluted in PBS on 96-well plate and mixed with equal volumes of erythrocyte solution. Post 1-hour incubation at 37° C., intact cells were pelleted by centrifugation at 1000×g for 5 minutes at 4° C. The supernatant was then transferred to a new 96-well plate. The hemoglobin released was measured via EMax Plus microplate reader (Molecular Devices, USA) at 570 nm wavelength. Erythrocytes in PBS with or without 0.1% Triton X-100 was used as negative or positive control, respectively.

[19] = tested on: Gram-positive bacteria; test: Microbroth dilution MIC, range over panel; settings: against Gram-positive bacteria of the panel
Method: as §1, §3

[20] = tested on: human liver carcinoma HepG2 cells; settings: read-out: IC50, inhibition of proliferation
Method: The CyQuant Direct cell proliferation assay kit (ThermoFisher, Canada) was used to assess the effect of C12-PRP on cell proliferation according to the manufacturer's protocol. Briefly, human embryonic kidney cells (HEK-293) and HepG2 cells were grown in Dulbecco's Modified Eagle's Medium supplemented with 10% fetal bovine serum. The cells were dispersed into 96-well plates (8000 cells/well in 100 μl ). Wells with media but no cells were used as blanks. After 24 hours, varying concentrations of C12-PRP, colistin and Adriamycin® were added to the wells containing cells but also the blanks. After incubation of the cells with the compounds for 48 hours, the CyQuant Direct detection reagent was added to the wells. Plates were incubated at 37° C. for 1 hour and the fluorescence (Excitation 480nm/Emission 535 nm) was read using a SpectraMax M2e (Molecular Devices, USA). As a positive control, CyQuant Direct detection reagent was added to a plate with untreated cells, incubated for 1 hour followed by fluorescence reading. The number of cells in each well was determined by detaching the cells by trypsin followed by counting on a CoulterZM counter to ensure an approximate equal number of cells per well.

Row | Molecule | MIC [1] [µg/mL] | MIC [2] [µg/mL] | MIC [3] [µg/mL] | MIC [4] [µg/mL] | MIC [5] [µg/mL] | MIC [6] [µg/mL] | MIC [7] [µg/mL] | MIC [8] [µg/mL] | MIC [9] [µg/mL] | MIC [10] [µg/mL] | MIC [11] [µg/mL] | MIC [12] [µg/mL] | MIC [13] [µg/mL] | MIC [14] [µg/mL] | MIC [15] [µg/mL] | MIC [16] [µg/mL] | MIC [17] [µg/mL] | MHC (minimum concentration that resulted in 5% red blood cell hemolysis) [18] [µg/mL] | MIC range [19] [µg/mL] | IC50 [20] [nM]
1 | CCCCCCCCCCCCCCCC(=O)N1CCC[C@H]1C(=O)N[C@@H](CCCNC(=N)N)C(=O)N1CCC[C@H]1C(=O)NCC(=O)N1CCC[C@H]1C(=O)N[C@@H](CCCNC(=N)N)C(=O)N1CCC[C@H]1C(N)=O [Compound C16-PGP, CH3(CH2)14CO-PRPGPRP-NH2] (Palmitoyl-PRPGPRP-NH2) | 32 | 16 | 8 | 16 | 16 | 64 | 32 | 128 | 32 | 128 | 32 | 64 | 32 | 128 | 128 | 32 | 32 | 16 | 8 to 32 | 
2 | colistin |  |  |  |  |  |  |  |  |  |  |  |  |  |  |  |  |  |  |  | 1500
3 | CCCCCCCCCCCCCCCC(=O)N1CCC[C@H]1C(=O)N[C@@H](CCCNC(=N)N)C(=O)N1CCC[C@H]1C(=O)N[C@@H](Cc1c[nH]c2ccccc12)C(=O)N1CCC[C@H]1C(=O)N[C@@H](CCCNC(=N)N)C(=O)N1CCC[C@H]1C(N)=O [Compound C16-PWP, CH3(CH2)14CO-PRPWPRP-NH2] (Palmitoyl-PRPWPRP-NH2) | 32 | 8 | 4 | 8 | 8 | 32 | 32 | 64 | 8 | 64 | 64 | 64 | 64 | 64 | 64 | 16 | 8 | 16 | 4 to 8 | 

Reference: patent US20200407398A1, “Short Proline-Rich Lipopeptide Potentiates Minocycline and Rifampicin Against Multidrug-and Extensively Drug-Resistant Pseudomonas Aeruginosa” (priority 2018, published 2020)
